Laboratory results: US20230346745A1, “AGENT FOR PREVENTING OR TREATING TAUOPATHY” (FUJIFILM Toyama Chemical Co., Ltd., priority 2017, published 2023)

Experiments:
Type in all cases: in vivo, human
[1] = test system: Aβ; experiment: Phase II placebo-controlled trial: concentration of Aβ in cerebrospinal fluid (overall statement); conditions: Compound A group compared to the placebo group; mild to moderate AD patients
Excerpt: Test Example 1 Multicenter randomized double-blind phase II placebo-controlled trial for assessing effectiveness and safety of Compound A in mild to moderate AD patients Subject (selection criteria): Patients were screened in a period from 42 days before treatment assignment to the assignment based on the following selection criteria. • Patients who were probable AD and are 55 years old or older and 85 years old or younger at the time of obtaining consent of screening. • Patients with an MMSE score of 12 to 22 at the time of screening • Patients with a Modified Hachinski Ischemia Scale score of 4 or less • Patients who have been treated with a donepezil hydrochloride or rivastigmine transdermal system for at least 4 months before the baseline and with a stable dose thereof for 3 months before the baseline. • In the case of patients who have received memantine in addition to being treated with a donepezil hydrochloride or rivastigmine transdermal system, patients who have been treated with memantine for at least 4 months before the baseline and with a stable dose thereof for 3 months before the baseline. • Patients whose brain MRI or CT results match AD at the time of screening Organization of groups: Patients matched (484 patients) were randomly divided into the following 3 groups and the trial was started. […]

[2] = test system: total tau protein (total-Tau); experiment: Phase II placebo-controlled trial: cerebrospinal fluid biomarker total-Tau (ECL method, measured twice); conditions: CSF, AD patients; for total-Tau change at week 52 from baseline, difference from placebo group / total-Tau change at week 52 from baseline, least square means (standard error): First measurement (Table 2); for total-Tau (remeasured) change at week 52 from baseline, difference from placebo group / total-Tau (remeasured) change at week 52 from baseline, least square means (standard error): Total-Tau concentration remeasured (Table 3)
Excerpt: (§1) Test Example 1 Multicenter randomized double-blind phase II placebo-controlled trial for assessing effectiveness and safety of Compound A in mild to moderate AD patients Subject (selection criteria): Patients were screened in a period from 42 days before treatment assignment to the assignment based on the following selection criteria. • Patients who were probable AD and are 55 years old or older and 85 years old or younger at the time of obtaining consent of screening. • Patients with an MMSE score of 12 to 22 at the time of screening • Patients with a Modified Hachinski Ischemia Scale score of 4 or less • Patients who have been treated with a donepezil hydrochloride or rivastigmine transdermal system for at least 4 months before the baseline and with a stable dose thereof for 3 months before the baseline. • In the case of patients who have received memantine in addition to being treated with a donepezil hydrochloride or rivastigmine transdermal system, patients who have been treated with memantine for at least 4 months before the baseline and with a stable dose thereof for 3 months before the baseline. • Patients whose brain MRI or CT results match AD at the time of screening Organization of groups: Patients matched (484 patients) were randomly divided into the following 3 groups and the trial was started. (1) High dose group: 224 mg of a test compound (160 mg in terms of Compound A) was orally administered once a day for 4 weeks and then 448 mg of a test compound (320 mg in terms of Compound A) was orally administered once a day for 48 weeks (158 patients) (2) Low dose group: 224 mg of a test compound (160 mg in terms of Compound A) was orally administered once a day for 52 weeks (166 patients) (3) Placebo group: placebo was orally administered once a day for 52 weeks (158 patients) Method of assessment: Cerebrospinal fluid biomarker
(§2) Cerebrospinal fluid was collected by lumber puncture from subjects at baseline (within 2 weeks before the first day of administration of investigational drug) and after 52 weeks (within 2 weeks before week 52), and divided into 9-ml aliquots in polyethylene tubes and stored at -80° C. The total tau protein concentration (total-Tau) in the cerebrospinal fluid was measured by an ECL method. The phosphorylated tau protein concentration (p-Tau) was measured by ELISA method. The Aβ-42 value in the cerebrospinal fluid was measured by sandwich ELIZA which has been designed for measurement of AP including 1 amino acid and 42 amino acids.
(§3) The total-Tau concentration was measured twice using the same cerebrospinal fluid sample.
(§4) Change in cerebrospinal fluid (CSF) biomarkers at week 52 from the baseline was compared by analysis of covariance between a high dose group and a placebo group, and between a low dose group and the placebo group. For models, the baseline of cerebrospinal fluid (CSF) biomarkers was included as a covariate and the significance level was 5%.

[3] = test system: Aβ-38; experiment: Phase II placebo-controlled trial: cerebrospinal fluid biomarker Aβ-38; conditions: CSF, mild to moderate AD patients
Excerpt: as §1, §2
(§5) Change in cerebrospinal fluid (CSF) biomarkers at week 52 from the baseline was compared by analysis of covariance between a high dose group and a placebo group, and between a low dose group and the placebo group. […]

[4] = test system: Aβ-40; experiment: Phase II placebo-controlled trial: cerebrospinal fluid biomarker Aβ-40; conditions: CSF, mild to moderate AD patients
Excerpt: as §1, §2, §5

[5] = test system: Aβ-42; experiment: Phase II placebo-controlled trial: cerebrospinal fluid biomarker Aβ-42 (sandwich ELISA); conditions: CSF, mild to moderate AD patients
Excerpt: as §1, §2, §5

[6] = test system: phosphorylated tau protein (p-Tau); experiment: Phase II placebo-controlled trial: cerebrospinal fluid biomarker p-Tau (ELISA); conditions: for p-Tau change at week 52 from baseline, difference from placebo group / p-Tau change at week 52 from baseline, least square means (standard error): CSF
Excerpt: as §1, §2, §4

[7] = test system: p-Tau/total-Tau; experiment: Phase II placebo-controlled trial: ratio p-Tau/total-Tau in cerebrospinal fluid; conditions: CSF, AD patients; for p-Tau/total-Tau change at week 52 from baseline, difference from placebo group / p-Tau/total-Tau change at week 52 from baseline, least square means (standard error): First total-Tau measurement (Table 2); for p-Tau/total-Tau (remeasured total-Tau) change at week 52 from baseline, difference from placebo group / p-Tau/total-Tau (remeasured total-Tau) change at week 52 from baseline, least square means (standard error): Total-Tau concentration remeasured (Table 3)
Excerpt: as §1, §2, §3, §4

[8] = High dose group: 160 mg 4 weeks then 320 mg 48 weeks in terms of Compound A, oral once a day
[9] = Low dose group: 160 mg in terms of Compound A, oral once a day 52 weeks
[10] = High dose group: 160 mg 4 weeks then 320 mg 48 weeks in terms of Compound A, oral once a day, mild to moderate AD patients
[11] = Low dose group: 160 mg in terms of Compound A, oral once a day 52 weeks, mild to moderate AD patients

OC1CN(CCCOCCc2ccc3sccc3c2)C1 [Compound A, 1-(3-(2-(1-benzothiophen-5-yl)ethoxy)propyl)azetidin-3-ol]
change in the concentration of AP in the cerebrospinal fluid at week 52 from the baseline [1]: tended to be increased in a dose dependent manner | total-Tau change at week 52 from baseline, difference from placebo group [2, 8]: 81.94 pg/mL | total-Tau change at week 52 from baseline, least square means (standard error) [2, 8]: 11.38(47.304) pg/mL | total-Tau change at week 52 from baseline, difference from placebo group [2, 9]: 28.19 pg/mL | total-Tau change at week 52 from baseline, least square means (standard error) [2, 9]: −42.36(63.947) pg/mL | total-Tau (remeasured) change at week 52 from baseline, difference from placebo group [2, 8]: -129.57 pg/mL | total-Tau (remeasured) change at week 52 from baseline, least square means (standard error) [2, 8]: −101.35 (32.552) pg/mL | total-Tau (remeasured) change at week 52 from baseline, difference from placebo group [2, 9]: -36.10 pg/mL | total-Tau (remeasured) change at week 52 from baseline, least square means (standard error) [2, 9]: −7.88 (38.632) pg/mL | Aβ-38 change at week 52 from baseline, difference from placebo group [3, 8]: 525.66 pg/mL | Aβ-38 change at week 52 from baseline, least square means (standard error) [3, 8]: 178.64(221.978) pg/mL | Aβ-38 change at week 52 from baseline, difference from placebo group [3, 9]: 127.43 pg/mL | Aβ-38 change at week 52 from baseline, least square means (standard error) [3, 9]: −219.58(266.774) pg/mL | Aβ-40 change at week 52 from baseline, difference from placebo group [4, 8]: 1206.87 pg/mL | Aβ-40 change at week 52 from baseline, least square means (standard error) [4, 8]: 290.84(466.956) pg/mL | Aβ-40 change at week 52 from baseline, difference from placebo group [4, 9]: 75.71 pg/mL | Aβ-40 change at week 52 from baseline, least square means (standard error) [4, 9]: −840.32(559.467) pg/mL | Aβ-42 change at week 52 from baseline, difference from placebo group [5, 8]: 32.90 pg/mL | Aβ-42 change at week 52 from baseline, least square means (standard error) [5, 8]: 11.55(25.578) pg/mL | Aβ-42 change at week 52 from baseline, difference from placebo group [5, 9]: 11.65 pg/mL | Aβ-42 change at week 52 from baseline, least square means (standard error) [5, 9]: −9.70(30.362) pg/mL | change in the concentration of p-Tau in the cerebrospinal fluid at week 52 from the baseline ([6]; Compound A group compared to the placebo group, mild to moderate AD patients): consistently tended to be decreased in a dose-dependent manner | change in the concentration of p-Tau in the cerebrospinal fluid at week 52 from the baseline, statistical comparison ([6]; Compound A high dose group versus placebo group, analysis of covariance, significance level 5%): statistically significant difference | p-Tau change at week 52 from baseline, difference from placebo group [6, 10]: -7.59 pg/mL | p-Tau change at week 52 from baseline, least square means (standard error) [6, 10]: −7.30(2.281) pg/mL | p-Tau change at week 52 from baseline, difference from placebo group [6, 11]: -4.23 pg/mL | p-Tau change at week 52 from baseline, least square means (standard error) [6, 11]: −3.94(2.715) pg/mL | p-Tau/total-Tau change at week 52 from baseline, difference from placebo group [7, 8]: −11.11% | p-Tau/total-Tau change at week 52 from baseline, least square means (standard error) [7, 8]: −4.47(3.21) % | p-Tau/total-Tau change at week 52 from baseline, difference from placebo group [7, 9]: −4.60% | p-Tau/total-Tau change at week 52 from baseline, least square means (standard error) [7, 9]: 2.04(4.33) % | p-Tau/total-Tau (remeasured total-Tau) change at week 52 from baseline, difference from placebo group [7, 8]: 0.26% | p-Tau/total-Tau (remeasured total-Tau) change at week 52 from baseline, least square means (standard error) [7, 8]: 0.04(0.17) % | p-Tau/total-Tau (remeasured total-Tau) change at week 52 from baseline, difference from placebo group [7, 9]: 0.03% | p-Tau/total-Tau (remeasured total-Tau) change at week 52 from baseline, least square means (standard error) [7, 9]: −0.20(0.20) %
